Calls of active or inactive are those of the source. The rule behind the calls is not given here.
Columns and labels:
[1] = AUC (0 to infinity) in Wistar Han rat at 10 mg/kg, po measured upto 24 hrs by LC-MS/MS analysis; type: ADME, organism-based; design: dose 10 mg/kg, time < 24 hrs, route po; conditions: in vivo
[2] = Oral bioavailability in Wistar Han rat at 10 mg/kg measured upto 24 hrs by LC-MS/MS analysis; type: ADME, organism-based; conditions: in vivo
[3] = Oral bioavailability in C57/BI mouse at 10 mg/kg measured upto 24 hrs by LC-MS/MS analysis; type: ADME, organism-based; conditions: in vivo
[4] = AUC (0 to infinity) in C57/BI mouse at 10 mg/kg, po measured upto 24 hrs by LC-MS/MS analysis; type: ADME, organism-based; design: time < 24 hrs, dose 10 mg/kg, route po; conditions: in vivo
[5] = Half life in C57/BI mouse at 10 mg/kg, po measured upto 24 hrs by LC-MS/MS analysis; type: ADME, organism-based; conditions: in vivo
[6] = Half life in C57/BI mouse at 2 mg/kg, iv measured upto 24 hrs by LC-MS/MS analysis; type: ADME, organism-based; conditions: in vivo
[7] = Half life in Wistar Han rat at 10 mg/kg, po measured upto 24 hrs by LC-MS/MS analysis; type: ADME, organism-based; conditions: in vivo
[8] = molecular target: GABA-A receptor; anion channel (Homo sapiens) (UniProt P14867+P47870+P18507+P28472+P48169+Q99928+Q9UN88+P34903+O00591+O14764+Q8N1C3+P18505+P78334+P47869+P31644+Q16445); assay: Inhibition of GABAA (unknown origin) at 34 uM relative to control; type: protein-complex assay
[9] = molecular target: T1, Protein deacetylase HDAC6 (Homo sapiens, UniProt Q9UBN7); assay: Inhibition of HDAC6 (unknown origin) incubated for 30 mins
T1 sequence (Q9UBN7 whole entry): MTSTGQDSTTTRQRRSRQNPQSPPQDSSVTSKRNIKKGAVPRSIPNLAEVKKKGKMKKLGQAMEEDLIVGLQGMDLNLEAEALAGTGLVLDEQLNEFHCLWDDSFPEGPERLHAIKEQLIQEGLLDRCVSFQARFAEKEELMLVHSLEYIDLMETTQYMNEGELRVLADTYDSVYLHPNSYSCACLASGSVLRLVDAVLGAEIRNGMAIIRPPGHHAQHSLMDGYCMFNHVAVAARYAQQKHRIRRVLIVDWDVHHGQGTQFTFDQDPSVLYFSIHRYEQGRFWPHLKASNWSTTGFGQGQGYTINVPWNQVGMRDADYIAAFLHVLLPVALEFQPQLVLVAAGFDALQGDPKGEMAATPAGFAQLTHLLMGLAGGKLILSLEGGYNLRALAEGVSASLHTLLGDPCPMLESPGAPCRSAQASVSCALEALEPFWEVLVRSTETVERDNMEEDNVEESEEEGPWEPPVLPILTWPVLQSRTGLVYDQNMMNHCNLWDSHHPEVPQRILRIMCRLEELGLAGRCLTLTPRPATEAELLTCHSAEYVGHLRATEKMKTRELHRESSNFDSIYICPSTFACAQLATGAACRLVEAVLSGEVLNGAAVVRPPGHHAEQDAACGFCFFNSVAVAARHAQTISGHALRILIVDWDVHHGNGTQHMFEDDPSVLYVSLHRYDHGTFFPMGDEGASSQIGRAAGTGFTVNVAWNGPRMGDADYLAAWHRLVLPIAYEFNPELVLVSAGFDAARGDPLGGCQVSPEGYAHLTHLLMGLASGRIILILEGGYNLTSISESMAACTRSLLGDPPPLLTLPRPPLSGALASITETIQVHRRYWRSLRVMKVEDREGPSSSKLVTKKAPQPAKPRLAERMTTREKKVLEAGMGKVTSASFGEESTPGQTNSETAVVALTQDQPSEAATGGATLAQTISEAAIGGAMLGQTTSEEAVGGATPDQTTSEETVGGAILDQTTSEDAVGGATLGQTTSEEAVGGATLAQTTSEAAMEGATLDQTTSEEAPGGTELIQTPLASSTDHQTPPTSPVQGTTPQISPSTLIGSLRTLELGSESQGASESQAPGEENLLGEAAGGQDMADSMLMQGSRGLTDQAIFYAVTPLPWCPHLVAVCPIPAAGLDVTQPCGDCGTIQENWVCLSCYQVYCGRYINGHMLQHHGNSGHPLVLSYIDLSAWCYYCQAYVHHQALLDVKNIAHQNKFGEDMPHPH

[10] = tested on: Sodium-dependent noradrenaline transporter; assay: Inhibition of NET (unknown origin) at 49 uM relative to control; conditions: Homo sapiens
[11] = Plasma protein binding in mouse assessed as unbound fraction; type: ADME, cell-free
THP-1 = assay: Cytotoxicity against human THP-1 cells assessed as reduction in cell viability measured upto 250 uM by alamar blue staining based assay; type: functional
[12] = Half life in Wistar Han rat at 1 mg/kg, po measured upto 24 hrs by LC-MS/MS analysis; type: ADME, organism-based; conditions: in vivo
[13] = molecular target: cAMP and cAMP-inhibited cGMP 3',5'-cyclic phosphodiesterase 10A (Homo sapiens) (UniProt Q9Y233); assay: Inhibition of PDE10A2 (unknown origin) at 91 uM relative to control
Chain of cAMP and cAMP-inhibited cGMP 3',5'-cyclic phosphodiesterase 10A (Homo sapiens) (Q9Y233 whole entry): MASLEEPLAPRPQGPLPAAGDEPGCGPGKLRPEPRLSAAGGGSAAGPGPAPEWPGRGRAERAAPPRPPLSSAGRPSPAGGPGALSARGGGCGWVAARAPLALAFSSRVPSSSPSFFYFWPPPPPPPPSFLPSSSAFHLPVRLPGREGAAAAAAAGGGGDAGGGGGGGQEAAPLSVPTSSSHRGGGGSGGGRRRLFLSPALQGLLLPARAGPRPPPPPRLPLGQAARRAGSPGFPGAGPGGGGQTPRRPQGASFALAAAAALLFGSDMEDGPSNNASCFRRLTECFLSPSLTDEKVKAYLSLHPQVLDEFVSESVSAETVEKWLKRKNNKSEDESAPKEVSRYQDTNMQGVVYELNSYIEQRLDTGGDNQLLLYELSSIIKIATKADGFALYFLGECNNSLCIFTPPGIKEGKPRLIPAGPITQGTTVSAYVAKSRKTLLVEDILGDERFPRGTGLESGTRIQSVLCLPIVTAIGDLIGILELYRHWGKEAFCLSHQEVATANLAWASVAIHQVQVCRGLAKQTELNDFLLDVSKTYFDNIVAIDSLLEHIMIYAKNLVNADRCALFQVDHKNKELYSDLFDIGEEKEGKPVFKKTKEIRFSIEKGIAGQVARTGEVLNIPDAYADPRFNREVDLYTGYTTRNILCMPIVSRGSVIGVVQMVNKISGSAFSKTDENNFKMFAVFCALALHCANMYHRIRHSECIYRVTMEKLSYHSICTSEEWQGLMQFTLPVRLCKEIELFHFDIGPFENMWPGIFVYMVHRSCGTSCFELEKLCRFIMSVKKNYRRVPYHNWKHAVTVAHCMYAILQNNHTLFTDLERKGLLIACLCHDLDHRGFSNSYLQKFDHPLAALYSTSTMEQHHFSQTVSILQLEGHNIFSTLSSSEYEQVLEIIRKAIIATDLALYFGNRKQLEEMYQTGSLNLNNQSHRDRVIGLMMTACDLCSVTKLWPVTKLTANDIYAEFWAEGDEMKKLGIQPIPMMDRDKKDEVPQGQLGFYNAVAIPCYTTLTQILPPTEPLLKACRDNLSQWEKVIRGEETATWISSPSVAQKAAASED

[14] = Oral bioavailability in C57/BI mouse at 1 mg/kg measured upto 24 hrs by LC-MS/MS analysis; type: ADME, organism-based; conditions: in vivo
[15] = Clearance in C57/BI mouse at 0.5 mg/kg, iv measured upto 24 hrs by LC-MS/MS analysis; type: ADME, organism-based; conditions: in vivo
[16] = Half life in C57/BI mouse at 0.5 mg/kg, iv measured upto 24 hrs by LC-MS/MS analysis; type: ADME, organism-based; conditions: in vivo
[17] = Half life in C57/BI mouse at 1 mg/kg, po measured upto 24 hrs by LC-MS/MS analysis; type: ADME, organism-based; conditions: in vivo

Row | AUC(0-inf) [1] | bioavailability [2] | bioavailability [3] | AUC(0-inf) [4] | half-life [5] | half-life [6] | half-life [7] | inhibition [8] | IC50 [9] | inhibition [10] | fraction unbound [11] | half-life [12] | inhibition [13] | bioavailability [14] | clearance [15] | half-life [16] | half-life [17] | SMILES | Activity (THP-1)
1 | 0.05 µM·h | 19% | 12% | 0.4 µM·h | 1.7 h | 0.2 h | 2.1 h |  |  |  |  |  |  |  |  |  |  | O=C(NO)c1cnc(NC2(c3ccccc3)CCC(F)(F)CC2)nc1 | 
2 |  |  |  |  |  |  |  | Active | 27 nM | Active | 0.27 | 10 h | Active | 110% | 2.4 mL/min/kg | 4.7 h | 5.3 h | FC(F)c1nnc(-c2ccc(Cn3nnc(-c4ccccn4)n3)nc2)o1 | inactive

Reference: ChEMBL document CHEMBL5370608, “Selective and Bioavailable HDAC6 2-(Difluoromethyl)-1,3,4-oxadiazole Substrate Inhibitors and Modeling of Their Bioactivation Mechanism” (J Med Chem, 2023)
